Key:
Assay type in all cases: cell-based, Pseudomonas aeruginosa
[1] = system: nonswarming P. aeruginosa mutant rhlA; assay: Swarming motility of nonswarming rhlA mutant on soft agar (reactivation / agonist assay); details: for Swarming motility of rhlA mutant: 85 μM in soft agar (0.5%); for Reactivation of swarming motility of rhlA mutant: concentration not given; for Concentration of activity reversal for swarming promotion of rhlA mutant (transition concentration): soft agar
Excerpt: Using nonswarming mutant to screen for swarming agonists and wild type P. aeruginosa for swarming antagonists. The transposon mutant, rhlA (genotype, rhlA-E08:ISphoA/hah)39 of P. aeruginosa (PAO1), that impairs the gene that is responsible for synthesizing rhamnolipids is completely incapable of a swarming motility. […] Based on this inference, a rhlA mutant was used in a swarming experiment to screen the saccharide-hydrocarbons for agonists that can reactivate the swarming motility of rhlA.
(§1) Swarm agar plates were based on M8 medium supplemented with 0.2% glucose, 0.5% casamino acid, 1 mM MgSO4 and […]. 17 For each set of experiment all the swarm plates were poured from same batch of agar and allowed to dry for 1 h before inoculation of bacteria. Bacterial culture (3 μl) (wild type PAO1 or rhlA mutant) with OD600 between […] was inoculated on the solidified agar plates. Swarm agar plates were incubated at 37° C. for 12 h and then incubated for additional 12 h at room temp. Chronological images of swarm plates were taken using a camera. To measure swarming area, sizes of the petridish in all swarming images were adjusted to a pre-assigned diameter and images were printed on copying paper (Xerox-business 4200). Weight of a 1 cm^2 copy paper square was roughly ˜8.0 mg. swarming images on the copy paper were cut and weighed, the swarm area was calculated by dividing the weight of image by weight of 1 cm^2 square (8 mg).
(§2) Swarm agar plates were made using M8 medium supplemented with 0.2% glucose, 0.5% casamino acid, 1 mM MgSO4 and solidified with 0.5% Bacto agar. 24 Bacterial culture with OD600 between 0.4 to 0.6 was inoculated as 3 μl aliquots. Swarm agar plates were incubated at 37° C. for 12 h and then incubated for additional 12 h at rt. For each set of experiment all the swarm plates were poured from same batch of agar and allowed to dry for 1 h before inoculation of bacteria.

wild type PAO1 = assay: Swarming motility of wild type PAO1 on soft agar (antagonist assay); details: for Swarming motility of wild type PAO1: 85 μM in soft agar; for Effect on PAO1 swarming: concentration not given; for Concentration of activity reversal for swarming inhibition of PAO1 (transition concentration): soft agar
Procedure: In contrast, the wild type P. aeruginosa produces the rhamnolipids and is capable of swarming on soft agar gel (˜0.5% agar). […] We note that saccharide hydrocarbons may also promote the swarming motility, but such promotions are less unambiguous than the inhibition for wild type PAO1. Such promotion will be unambiguous in the agonist assay using the nonswarming mutant rhlA.
as §1, §2

PAO1 biofilm = assay: Crystal violet based static biofilm inhibition assay, DSHs in LB media (Examples 2 and 4); details: for Inhibition of PAO1 biofilm formation (surface attached): 160 μM, 24 h, LB media, 160 µM; for Anti-biofilm activity (biofilm inhibition): concentration not given
Procedure: The ability of DSHs was tested to inhibit Pseudomonas aeruginosa adhesion, biofilm and to disperse pre-formed biofilm. To quantify the amount of PAO1/EGFP attached on the surface of micro titer plates with or without the synthesized DSHs, fluorescence emitted by green fluorescent proteins (GFP) was quantified (see supporting info for details). Crystal violet (CV) based static biofilm assay (see supporting info) was used to screen the anti-biofilm potencies of all synthesized agents. Both surface attached (SA) (FIG. 17) and total (SA+air-liquid interface) biofilm of P. aeruginosa was quantified. […] CV assays were also used to quantify the amount of P. aeruginosa biofilm remaining after dispersion experiments (FIG. 19). Initially, all agents were screen for anti-biofilm activities (both inhibition and dispersion) at 160 μM. […] All reported biofilm inhibition results are an average of 4 identical wells.
The effect that DSHs have on the adhesion of PAO1-EGFP on polystyrene surface (microtiter plate) was also examined. PAO1-EGFP is a P. aeruginosa strain that constitutively expresses green fluorescent protein. In the adhesion assays, PAO1-EGFP was grown in microtiter plate for 24-hours in LB-media with (160 μM) or without DSHs. After 24-hours, the fluorescent signal obtained from surface adhered PAO1-EGFP was measured. Percent reduction in fluorescence was calculated by comparing fluorescent signal from PAO1-EGFP grown in LB-media with the signal from wells that had DSHs (FIG. 29A). To study the effect of DSHs on biofilm formation, Pseudomonas aeruginosa (PAO1) was grown in LB-media with (160 μM) or without DSHs at 37° C. under static conditions within wells of microtiter plates. After 24 hours, the surface attached biofilms adhering to the bottom of the wells were stained with crystal-violet dye and the biofilm was quantified by measuring absorbance at 600 nm (OD600). […] Similar to inhibition, the surface attached biofilm after dispersion with DSHs was quantified with crystal-violet staining and absorbance measurement at 600 nm, except that for dispersion, biofilm was first grown for 1 day in just LB-media without any DSHs after which DSHs were added and plates were incubated for additional 24 hours followed by quantification (FIG. 29B).
Crystal violet (CV) based-biofilm inhibition assay. Inhibitory effect of all synthesized disaccharide hydrocarbons on biofilm formation of Pseudomonas aeruginosa (wild type PAO1) was determined by static biofilm inhibition assay using crystal violet staining. Overnight culture of PAO1 were sub cultured in LB media to OD600 of 0.01 and further the OD600 was allowed to reach ˜0.1. The bacterial sub-culture (200 μL) was then added into the wells of a microtiter plate. Predetermined concentrations of DSHs were added to respective wells containing sub culture by pipetting out fixed volume of sterile aqueous stock solutions (except DβL (7), SPOT, (15) and 2-ODαC (17), which were introduced as stocks prepared in H2O […] and EtOH (90:10) solutions). The microtiter plates were then wrapped in GLAD Press n′ Seal® (saran wrap) and further incubated under stationary conditions for 24 h at 37° C. After 24 h incubation, the culture media was discarded by pipetting carefully (without disrupting biofilm), the plate was then washed once with sterile water (200 μL) and allowed to dry at 37° C. for ˜30 mins. Microtiter plates were then stained with 0.1% aqueous solution of crystal violet (CV) (200 μL) at rt for ˜30 mins. Following this, the CV stain was removed and plate was again washed with sterile water (200 μL). Resultant CV stain in the well was then solubilized by adding 100 μL of 30% AcOH solution (in water) and mixing gently by pipetting.

Molecule | Swarming motility of rhlA mutant ([1]; 24 h) | Swarming motility of wild type PAO1 (wild type PAO1; 24 h) | Effect on PAO1 swarming (wild type PAO1) | Anti-biofilm activity (biofilm inhibition) (PAO1 biofilm) | further results
CCCCCCCCCCC(CO[C@@H]1O[C@H](CO)[C@@H](O[C@H]2O[C@H](CO)[C@@H](O)[C@H](O)[C@H]2O)[C@H](O)[C@H]1O)Cc1cc(C)cc(C)c1 (stereo partly drawn) [3,5-DMBDβM, 3,5-dimethyl benzyl dodecyl β-maltoside] | long, straight and well-defined tendrils |  |  |  | 
CCCCCCCCCCC(CO[C@@H]1O[C@H](CO)[C@@H](O[C@H]2O[C@H](CO)[C@@H](O)[C@H](O)[C@H]2O)[C@H](O)[C@H]1O)Cc1ccc(C)cc1 (stereo partly drawn) [4-MBDβM, 4-methyl benzyl dodecyl β-maltoside] | long, straight and well-defined tendrils |  |  |  | 
CCCCCCCCC(CO[C@@H]1O[C@H](CO)[C@@H](O[C@H]2O[C@H](CO)[C@@H](O)[C@H](O)[C@H]2O)[C@H](O)[C@H]1O)Cc1ccc(C(C)(C)C)cc1 (stereo partly drawn) [4-tBuBDeβM, 4-tertiary butyl benzyl decyl β-maltoside] | swarming motility with without well-defined tendrils |  |  |  | 
CCCCCCCCCCO[C@@H]1O[C@H](CO)[C@@H](O[C@H]2O[C@H](CO)[C@@H](O)[C@H](O)[C@H]2O)[C@H](O)[C@H]1O [DeβM, decyl β-matoside] | did not exhibit any significant activation of swarming |  |  |  | 
CCCCCCCCCCCCO[C@H]1O[C@H](CO)[C@@H](O[C@@H]2O[C@H](CO)[C@@H](O)[C@H](O)[C@H]2O)[C@H](O)[C@H]1O [DαC (6), dodecyl-α-cellobioside] | no apparent reactivation of rhlA swarming | causing significant amount of tendril formation | induced tendril formation in the swarming pattern of PAO1 |  | 
CCCCCCCCCCCCO[C@@H]1O[C@H](CO)[C@@H](O)[C@H](O)[C@H]1O [DβG (8), dodecyl-β-glucoside] | no apparent effect on rhlA | inhibited the swarming motility of wild type PAO1 |  | weak anti-biofilm activity | Reactivation of swarming motility of rhlA mutant [1]: activated the swarming motility of rhlA mutant; Concentration of activity reversal for swarming promotion of rhlA mutant (transition concentration) [1]: ~35 to 50 µM; Concentration of activity reversal for swarming promotion of rhlA mutant (transition concentration) ([1]; listed as 8): 35 µM; Concentration of activity reversal for swarming inhibition of PAO1 (transition concentration) (wild type PAO1): ~50 to 60 µM; Concentration of activity reversal for swarming inhibition of PAO1 (transition concentration) (wild type PAO1; listed as 8): 35 to 50 µM; Inhibition of PAO1 biofilm formation (surface attached) (PAO1 biofilm; listed as 8: DβG): poor anti-biofilm activity; Anti-biofilm activity (biofilm inhibition) (PAO1 biofilm; listed as DOG (8)): did not show significant inhibition of PAO1 biofilm
CCCCCCCCCCCCO[C@@H]1O[C@H](CO)[C@@H](O[C@H]2O[C@H](CO)[C@@H](O)[C@H](O)[C@H]2O)[C@H](O)[C@H]1O [DβM (1), dodecyl-β-maltoside] | strong reactivation of the swarming motility in rhlA mutant | causing significant amount of tendril formation | induced tendril formation in the swarming pattern of PAO1 |  | Swarming motility of rhlA mutant ([1]; 24 h, listed as DβM): long, straight and well-defined tendrils; Swarming reactivation of rhlA mutant ([1]; 110 μM in soft agar, 24 h): fully restored the swarming of rhlA; Swarming of wild type PAO1 (wild type PAO1; 110 μM in soft agar, 24 h): did not significantly affect the swarm pattern; Inhibition of PAO1 biofilm formation (surface attached) (PAO1 biofilm; listed as 1: DβM): 50%
CCCCCCCCCCCCCO[C@@H]1O[C@H](CO)[C@@H](O[C@@H]2O[C@H](CO)[C@@H](O)[C@H](O)[C@H]2O)[C@H](O)[C@H]1O [TβC (5), tridecyl-β-cellobioside] | no apparent reactivation of rhlA swarming | causing significant amount of tendril formation | induced tendril formation in the swarming pattern of PAO1 | did not show significant inhibition of PAO1 biofilm | Concentration of first inhibition of rhlA swarming [1]: around 50 μM; Concentration of another activation of rhlA swarming ([1]; after first inhibition): about 160 μM; Reactivation of swarming motility of rhlA mutant [1]: activated the swarming motility of rhlA mutant; Concentration of activity reversal for swarming promotion of rhlA mutant (transition concentration) [1]: ~40 µM; Concentration of activity reversal for swarming promotion of rhlA mutant (transition concentration) ([1]; listed as 5): 40 µM; Concentration at which tendrils were induced in PAO1 (wild type PAO1): 30 µM; Concentration of activity reversal for swarming inhibition of PAO1 (transition concentration) (wild type PAO1): ~20 to 30 µM
C=CCCCCCCCCCO[C@@H]1O[C@H](CO)[C@@H](O[C@@H]2O[C@H](CO)[C@@H](O)[C@H](O)[C@H]2O)[C@H](O)[C@H]1O [UDβC (10), undecylenyl-β-cellobioside] | no significant effect on the swarming motility | no significant effect on the swarming motility | no apparent effect on PAO1 swarming | did not show anti-biofilm activities | Inhibition of PAO1 biofilm formation (surface attached) (PAO1 biofilm; listed as 10: UDβC): lesser potency than DSH with completely saturated aliphatic chain
CCCCCCCCCCCO[C@@H]1O[C@H](CO)[C@@H](O[C@@H]2O[C@H](CO)[C@@H](O)[C@H](O)[C@H]2O)[C@H](O)[C@H]1O [UβC (3), undecyl-β-cellobioside] | strong reactivation of the swarming motility in rhlA mutant | causing significant amount of tendril formation | induced tendril formation in the swarming pattern of PAO1 | did not show significant inhibition of PAO1 biofilm | Reactivation of swarming motility of rhlA mutant [1]: activated the swarming motility of rhlA mutant
CCCCCCCCCCCO[C@@H]1O[C@H](CO)[C@@H](O[C@H]2O[C@H](CO)[C@@H](O)[C@H](O)[C@H]2O)[C@H](O)[C@H]1O [UβM, undecyl β-maltoside] | swarming motility with without well-defined tendrils |  |  |  | 
adamantane dodecyl β-maltoside [ADβM] | long, straight and well-defined tendrils |  |  |  | 
